Literature values in US20020137728A1, “Topical oral care compositions” (Oraceutical LLC, priority 2001, published 2002).

Experiments:
[1] = test system: serum alkaline phosphatase enzyme; settings: single dose intraperitoneally, Wistar rats with artificially induced periodontal lesions
[2] = peroxide tooth whitening composition on tooth surface

Row | Structure (SMILES) | serum alkaline phosphatase enzyme [1] | time to reach vital pulp tissue from initial contact on the tooth surface [2] [min]
1 | O=C1O[C@H]([C@@H](O)CO)C(O)=C1O [ascorbic acid] | increase | 
2 | OO [hydrogen peroxide] |  | ≤ 15
